Values after ≈ are worked out from the molar mass of the structure shown. Read-outs that look alike come from different tables or passages of the source.
Columns and labels:
[1] = target: T1, human recombinant enzyme (full length top1) (Homo sapiens, UniProt P11387); test: Topoisomerase-I-dependent DNA rupture assay, persistence of DNA damage; type: biochemical; details: 30 min incubation with 10 μM drug
T1 construct: the human recombinant enzyme (full length top1)
T1 sequence (P11387 1-765): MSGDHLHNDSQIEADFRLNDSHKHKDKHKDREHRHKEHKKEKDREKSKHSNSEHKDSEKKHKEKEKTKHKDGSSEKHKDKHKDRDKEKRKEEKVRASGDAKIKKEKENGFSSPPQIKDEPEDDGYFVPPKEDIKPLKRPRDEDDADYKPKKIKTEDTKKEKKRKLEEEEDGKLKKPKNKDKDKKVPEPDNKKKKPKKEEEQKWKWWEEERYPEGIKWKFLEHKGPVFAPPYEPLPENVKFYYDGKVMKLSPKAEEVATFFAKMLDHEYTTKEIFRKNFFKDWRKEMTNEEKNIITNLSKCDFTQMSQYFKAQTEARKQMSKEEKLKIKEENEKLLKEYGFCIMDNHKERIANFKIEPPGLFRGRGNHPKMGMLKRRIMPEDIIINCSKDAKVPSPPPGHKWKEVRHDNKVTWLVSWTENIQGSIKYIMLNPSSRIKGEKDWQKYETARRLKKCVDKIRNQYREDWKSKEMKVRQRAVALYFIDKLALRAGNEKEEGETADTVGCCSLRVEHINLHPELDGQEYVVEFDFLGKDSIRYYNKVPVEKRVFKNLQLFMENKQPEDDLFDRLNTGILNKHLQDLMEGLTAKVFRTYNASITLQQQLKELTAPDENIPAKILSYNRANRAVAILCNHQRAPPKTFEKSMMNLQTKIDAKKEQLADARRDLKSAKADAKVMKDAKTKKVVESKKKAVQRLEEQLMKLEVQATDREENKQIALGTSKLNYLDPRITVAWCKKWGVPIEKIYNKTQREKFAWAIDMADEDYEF

[2] = tested on: NCI-H460 cell line (NSCL cancer); test: Cell growth inhibition assay (cytotoxicity, cell count); type: cell-based, human; details: for IC50: Homo sapiens; for NCl-H460 IC50 (μg/mL) Cell count: H460 cells
Experimental: The compounds of the invention were tested in a cytotoxicity assay on a wide spectrum of tumour cells. By way of example, the cytotoxicity data on the NCI-H460 cell line (NSCL cancer) concerning two compounds of formula (I) are reported, using camptothecin and the drugs Topotecan and SN-38 as references:
H460 Cells from human large cell lung tumor were cultured in RPMI-1640 medium containing 10% foetal calf serum. Cell sensitivity was determined by cell growth inhibition assay after 1 or 72 hr drug exposure. The cells in logarithmic growth were collected and seeded in duplicate in 6-wells plates. […] IC50 is defined as the concentration inhibiting by 50% cell growth compared with untreated controls growth.

[3] = Time 0 min after adding 0.6 M NaCl
[4] = NCI-H460, read-out: NCl-H460 IC50 (μg/mL) Cell count, H460 cells, 1 or 72 hr drug exposure, counted with Coulter counter 72 hours after exposure
[5] = 1 or 72 hr drug exposure, counted with Coulter counter 72 hours after exposure
[6] = NCI-H460, H460 cells, 1 or 72 hr drug exposure, counted with Coulter counter 72 hours after exposure, read-out: NCl-H460 IC50 (μg/mL) Cell count

With `CC[C@@]1(O)C(=O)OCc2c1cc1n(c2=O)C(F)c2cc3ccccc3nc2-1` (single isomer, unassigned) [5-F-camptothecin Isomer 1, 5-F-camptothecin 1st diastereomer] the “Persistence of DNA Damage (%)” value [1, 3] was 100%, the “Persistence of DNA Damage (%)” value ([1]; Time 1 min after adding 0.6 M NaCl, listed as 5-F CPT isomers 1) was 18% and the “Persistence of DNA Damage (%)” value ([1]; Time 5 min after adding 0.6 M NaCl, listed as 5-F CPT isomers 1) was 18%. The “Persistence of DNA Damage (%)” value ([1]; Time 10 min after adding 0.6 M NaCl, listed as 5-F CPT isomers 1) was 10% and the IC50 [2, 4] was 20.6 µg/mL (≈ 56.2 µM).

`CC[C@@]1(O)C(=O)OCc2c1cc1n(c2=O)C(F)c2cc3ccccc3nc2-1` (single isomer, unassigned) [5-F-camptothecin Isomer 2, 5-F-camptothecin 2nd diastereomer] was tested, and the “Persistence of DNA Damage (%)” value [1, 3] was 100%, the “Persistence of DNA Damage (%)” value ([1]; Time 1 min after adding 0.6 M NaCl, listed as 5-F CPT isomers 2) was 10% and the “Persistence of DNA Damage (%)” value ([1]; Time 5 min after adding 0.6 M NaCl, listed as 5-F CPT isomers 2) was 10%. For the same compound, the “Persistence of DNA Damage (%)” value ([1]; Time 10 min after adding 0.6 M NaCl, listed as 5-F CPT isomers 2) was 13% and the “NCl-H460 IC50 (μg/mL) Cell count” value [2, 5] was 20 ± 5.1 µg/mL.

In the case of `CC[C@@]1(O)C(=O)OCc2c1cc1n(c2=O)C(N=[N+]=[N-])c2cc3ccccc3nc2-1` (single isomer, unassigned) [5-N3 CPT, 5-N3-camptothecin], the “Persistence of DNA Damage (%)” value [1, 3] is reported as 100%, the “Persistence of DNA Damage (%)” value ([1]; Time 1 min after adding 0.6 M NaCl) is reported as 50% and the “Persistence of DNA Damage (%)” value ([1]; Time 5 min after adding 0.6 M NaCl) is reported as 30%. For the same compound, the “Persistence of DNA Damage (%)” value ([1]; Time 10 min after adding 0.6 M NaCl) was 15%.

With `CC[C@@]1(O)C(=O)OCc2c1cc1n(c2=O)C(N=[N+]=[N-])c2cc3ccccc3nc2-1` (single isomer, unassigned) [5-N3-camptothecin Isomer 1, 5-N3-camptothecin 1st diastereomer] the IC50 [2, 4] was 4.18 µg/mL (≈ 10.7 µM).

With `CC[C@@]1(O)C(=O)OCc2c1cc1n(c2=O)C(N=[N+]=[N-])c2cc3ccccc3nc2-1` (single isomer, unassigned) [5-N3-camptothecin Isomer 2, 5-N3-camptothecin 2nd diastereomer] the “NCl-H460 IC50 (μg/mL) Cell count” value [2, 5] was 2.59 ± 0.7 µg/mL.

For `CC[C@@]1(O)C(=O)OCc2c1cc1n(c2=O)C(N(NC(=O)OC(C)(C)C)C(=O)OC(C)(C)C)c2cc3ccccc3nc2-1` (single isomer, unassigned) [5-di-tert-butoxycarbonyl-hydrazinocamptothecin Isomer 1, 5-di-t-butoxycarbonylhydrazino-camptothecin 1st diastereomer], the IC50 [2, 6] was 50 µg/mL (≈ 86.4 µM).

`CC[C@@]1(O)C(=O)OCc2c1cc1n(c2=O)C(N(NC(=O)OC(C)(C)C)C(=O)OC(C)(C)C)c2cc3ccccc3nc2-1` (single isomer, unassigned) [5-di-tert-butoxycarbonyl-hydrazinocamptothecin Isomer 2, 5-di-t-butoxycarbonylhydrazino-camptothecin 2nd diastereomer] was tested, and the “NCl-H460 IC50 (μg/mL) Cell count” value [2, 5] was > 100 µg/mL.

Compound `CC[C@@]1(O)C(=O)OCc2c1cc1n(c2=O)C(N)c2cc3ccccc3nc2-1` (stereo partly shown) [5-NH2-camptothecin] has an IC50 [2, 6] of 11 ± 3.1 µg/mL (≈ 30.3 µM).

Reference: US8193210B2, “Camptothecin derivatives with antitumor activity” (Indena S.p.A., priority 2006, dated 2012)
